Where two headings read alike, the source gives them in different places.
Columns and labels:
[1] = test system: melanoma cells; conditions: literature, read-out: IC50 to induce cell death; cited from earlier work
[2] = test system: A375 Sensitive cells; experiment: Viability test, trypan blue exclusion, A375 Sensitive cells; assay type: cell-based, human; conditions: Homo sapiens, A-375, viable cells as percentage of DMSO control
Summary of the method: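 A375 (B-Raf, CDKN2A, PTEN mutant) cells were exposed to compounds at 5.0 or 10 μM for 24 or 48 hr; CRO15 also at 0.5–50 μM for 48 hr or 5 μM for 2–48 hr; DMSO control. Viable cells were counted by trypan blue exclusion, as % of control. Three experiments in triplicate.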

[3] = test system: A375 resistant melanoma cells; experiment: In vivo murine cancer model, A375 resistant xenograft; parameters: species or system BALB/c nu/nu (nude) mice; conditions: 0.7 mg/mouse/day intraperitoneal
Experimental: Animal experiments were carried out in accordance with the Declaration of Helsinki and were approved by a local ethical committee CIEPAL (Comité Institutionnel d'Ethique Pour l'Animal de Laboratoire-Azur). Female immune-deficient BALB/c nu/nu (nude) mice were obtained at 5 weeks of age from Envigo Laboratory (Gannat, France). Nude mice were inoculated subcutaneously with A375 sensitive or resistant melanoma cells (1.0×10^6 cells/mouse). After tumor apparition (±5 days), animals received intraperitoneal injection of Labrafil (Control), PLX4032 (0.7 mg/mouse/day) or CRO15 (0.7 mg/mouse/day) dissolved in Labrafil. The growth tumor curves were determined by measuring the tumor volume using the equation V=(L*W2)/2 (V=tumor volume, W=tumor width, L=tumor length). At the end of the experiment, mice were euthanized by cervical dislocation and tumors were taken for western blot and immunofluorescence experiments (LC3, Cleaved Caspase 3). TUNEL assay was performed using the In Situ Cell Death Detection Kit (Roche, Meylan, France). The results are shown in FIGS. 3A and 3B (A375 sensitive melanoma cells), and 4B and 4C (A375 resistant melanoma cells).
In Vivo Murine Cancer Model Animal experiments were carried out in accordance with the Declaration of Helsinki and were approved by a local ethical committee CIEPAL (Comite Institutionnel d'Ethique Pour l'Animal de Laboratoire-Azur). Female immune-deficient BALB/c nu/nu (nude) mice were obtained at 5 weeks of age from Envigo Laboratory (Gannat, France). Nude mice were inoculated subcutaneously with A375 resistant melanoma cells (1.0×10^6 cells/mouse). After tumor apparition (+5 days), animals received intraperitoneal injection of Labrafil (Control), PLX4032 (0.7 mg/mouse/day) or MTF319 (0.7 mg/mouse/day) dissolved in Labrafil. The growth tumor curves were determined by measuring the tumor volume using the equation V=(L*W2)/2 (V=tumor volume, W=tumor width, L=tumor length). At the end of the experiment, mice were euthanized by cervical dislocation.

[4] = 24 h, read-out: Viab A375 5 μM/ 24 h
[5] = 48 h, read-out: Viab A375 5 μM/ 48 h
[6] = 24 h, read-out: Viab A375 10 μM/ 24 h
[7] = 48 h, read-out: Viab A375 10 μM/ 48 h

| Compound | IC50 [1] | viability at 5 µM [2, 4] | viability at 5 µM [2, 5] | viability at 10 µM [2, 6] | viability at 10 µM [2, 7] | tumor volume ([3]; FIG. 4B, 6A) | tumor weight ([3]; FIG. 4C, 6B) |
| --- | --- | --- | --- | --- | --- | --- | --- |
| CN(C)C(=N)N=C(N)N [metformin] | 10 mM |  |  |  |  |  |  |
| N=c1nc(C(Cl)(Cl)Cl)nc(Nc2ccccc2O)[nH]1 [MTF 373, 2-((4-amino-6-(trichloromethyl)-1,3,5-triazin-2-yl)amino)phenol] |  | 34.3% | 22.5% | 38.6% | 22.8% |  |  |
| Cc1csc(NC(=N)NC(=N)c2cccc(Cl)c2)n1 [MTF 285, 3-chloro-N—(N-(4-methylthiazol-2-yl)carbamimidoyl)benzimidamide] |  | 45% | 100% | 77.8% | 78.7% |  |  |
| Cc1nc(NC(=N)NC(=N)c2ccncc2)sc1C [MTF 299, N—(N-(4,5-dimethylthiazol-2-yl)carbamimidoyl)isonicotinimidamide] |  | 91.1% | 76.6% | 72.8% | 46.2% |  |  |
| N=C(NC(=N)c1cccc(Br)c1)Nc1nc(-c2cccc([N+](=O)[O-])c2)cs1 [MTF 257, 3-bromo-N—(N-(4-(3-nitrophenyl)thiazol-2-yl)carbamimidoyl)benzimidamide] |  | 100% | 80.5% | 106% | 62% |  |  |
| CCOc1cccc(-c2nc(N)nc(Nc3ccccc3SSc3ccccc3Nc3nc(N)nc(-c4cccc(OCC)c4)n3)n2)c1 [MTF 319, N2,N2′-(disulfanediylbis(2,1-phenylene))bis(6-(3-ethoxyphenyl)-1,3,5-triazine-2,4-diamine)] |  | 8.6% | 3.1% | 8.6% | 0.6% | decrease in tumor volume | had an effect on the tumor growth |
| N=C(NC(=N)c1ccc(Cl)nc1)Nc1nc2ccccc2s1 [MTF 379, N—(N-(benzo[d]thiazol-2-yl)carbamimidoyl)-6-chloronicotinimidamide] |  | 148% | 76.9% | 95.7% | 86.2% |  |  |
| N=C(NC(=N)c1cccc(Cl)c1)Nc1nc(-c2ccccc2)cs1 [MTF 267, 3-chloro-N—(N-(4-phenylthiazol-2-yl)carbamimidoyl)benzimidamide] |  | 113% | 113% | 134% | 73.3% |  |  |
| N=C(NC(=N)c1cccc(Br)c1)Nc1nc(-c2ccccc2)cs1 [MTF 256, 3-bromo-N—(N-(4-phenylthiazol-2-yl)carbamimidoyl)benzimidamide] |  | 93.9% | 60% | 66% | 95.7% |  |  |
